Source: patent publication US5304474A, “Hydrophobic peptide esters and amides” (Board of Regents, The University of Texas System, priority 1991, dated 1994)
Peptide text beside a SMILES is read from it.

What was measured:
[1] = system: [^3 H]Leu-Leu-OMe uptake by PBL (facilitated transport); test: Competitive inhibition of [3H]Leu-Leu-OMe uptake; format: cell-based, human; conditions: Homo sapiens; unlabeled compound 250 microM; [3H]Leu-Leu-OMe 10 microM (Table 6)
Method: (§1) Human peripheral blood lymphocytes (PBL) were incubated in the presence of [^3 H]labeled Leu-Leu-OMe at 22° C. for varying lengths of time. The incubation mixture was then centrifuged through silicone oil to separate the cells from any unbound or non-internalized [^3 HLeu-Leu-OMe. […] At 37° C., levels of [^3 H]Leu-Leu-OMe accumulation by PBL were increased above those seen at 22° C. (see Table 4).

[2] = Activity and appearance of mice post-injection; format: in vivo, C3H/HeJ mice; conditions: 15-30 minutes post-injection, about 1×10^-3 moles per kg tail-vein
Method: (§2) Leu-Leu-OMe or Leu-Phe-OMe were suspended in PBS, pH 7.4. Then individual C3H/HeJ mice (25 gram size) were administered by tail-vein injection either 2.5×10^-5 moles (6.5 mg) of Leu-Leu-OMe, 2.5×10^-5 moles (7.1 mg) Leu-Phe-OMe, or an equal volume of the PBS diluent, this dose being about 1×10^-3 moles per kg. […] Subsequent to this quiescent period no difference in activity or appearance in the mice was noted. Two hours post-injection, the mice were sacrificed and their spleen cells were assayed for NK function in a standard 4 hour assay against YAC-1 tumor targets. In all mice, total cell recovery ranged […] spleen cells per animal. […] Thus, Leu-Leu-OMe or Leu-Phe-OMe caused a greater than 75% decrease in splenic lytic activity against YAC-1 tumor targets.

[3] = system: natural killer cells (NK); test: NK function: lysis of K562 target cells (51Cr release) after preincubation of lymphocytes with compound
[4] = system: splenic NK function (YAC-1 tumor targets); test: Spleen cell NK function against YAC-1 after tail-vein injection; format: in vivo, C3H/HeJ mice
Method: as §2

[5] = system: production of a TCA insoluble product from [^3 H]Leu-Leu-OMe; format: cell-based, human; conditions: Expt. 1; Cycloheximide 100 micro-g/ml, PMSF 1 micro-M, Iodoacetamide 0.5 micro-M; Nil 2,160 + 193
Description: Iodoacetamide nonspecifically binds covalently to free sulfhydryl groups and thereby inhibits thiol protease function as well as other enzymatic reactions dependent on the presence of reduced sulfhydryl groups.

[6] = system: natural killer cells (NK); conditions: previous experiments (Thiele et al. 1985); cited from earlier work
[7] = Conversion of [3H]Leu-Leu-OMe in cells to a product which precipitates in 10% TCA; format: in vitro ADME, human; conditions: for Fractional Conversion of [^3 H]Leu--Leu--OMe to a product which Precipitates in 10% TCA: Intact NK, T8 Cells
Method: Additional experiments, detailed in Table 7, were performed to assess the metabolic fate of [^3 H]Leu-Leu-OMe within PBL. Cells were incubated with [^3 H]Leu-Leu-OMe for 15 minutes at 22° C. to permit uptake of this compound and then were washed. If the cells were immediately lysed and 10% trichloroacetic acid (TCA) was added to precipitate higher molecular weight cell proteins and nucleic acids, essentially all of the [^3 H]label remained in the supernatant as anticipated for a small molecular weight peptide which is soluble in 10% TCA.
In experiment 1 of Table 8 non-adherent peripheral blood lymphocytes were incubated in the presence or absence of 250 micro-M unlabeled Leu-Leu-OMe for 15 minutes and then cultured overnight at 37° C. This form of exposure to Leu-Leu-OMe has been shown previously herein to result inloss of NK cells and a substantial fraction of CD8(+) T cells, whereas the majority of CD4(+) lymphocytes are resistant to any toxic effects of this agent and remain viable and functionally intact. […] However, when production of a product which precipitated in 10% TCA was assessed following a second incubation at 37° C. for 30 minutes, it was noted that the LLMe resistant subset of lymphocytes produced almost no detectable amounts of this as yet unidentified product.
In experiment 2 (Table 8), PBL were divided into a CD4(+) T cell (T4 cell)-enriched population and a T8, NK-enriched population by staining with anti-CD4 or anti-CD8 monoclonal antibodies and panning on goat anti-mouse coated petri dishes to enrich for the unstained lymphocyte subsets as previously described (see prior Examples and J. Immunol. 1986 136:1038-1048). Again, it was noted that T4 cells took up less [^3 H]Leu-Leu-OMe during an initial incubation than did a population of lymphocytes enriched for T8 and NK cells. However, the differences in production of a product which precipitated in 10% TCA were even more dramatic. Whereas initial [^3 H]Leu-Leu-Me uptake by T4 cells was approximately 53% of that seen with an equal number of T8 and NK cells, the amount of [^3 H]label appearing in a 10% TCA precipitate of the T4 cell sonicate after a subsequent 30 minute incubation was less than 7% of the quantity noted in the TCA precipitable of T8 and NK cell sonicates. Furthermore, little or no TCA insoluble product was produced by other non-lymphoid cell types such as dermal fibroblasts or a renal cell carcinoma line, Cur, which have been previously noted to be resistant to the toxicity of Leu-Leu-OMe (J. Immunol 1986: 136:1038-1048). […] As proteinase K digestion removed this product, it was likely to be a larger peptide or protein into which [^3 H]Leu had been incorporated.

[8] = system: peripheral blood lymphocytes (PBL); test: [3H]Leu-Leu-OMe uptake/binding by lymphocytes; format: in vitro ADME, human
Method: as §1

[9] = biological target: dipeptidyl peptidase I (DPPI) (Bos taurus, UniProt Q3ZCJ8); test: Polymerization of [3H]Leu-Leu-OMe to a TCA insoluble product by purified enzyme; format: biochemical, bovine
Sequence of dipeptidyl peptidase I (DPPI) (Q3ZCJ8 231-394 limits assumed): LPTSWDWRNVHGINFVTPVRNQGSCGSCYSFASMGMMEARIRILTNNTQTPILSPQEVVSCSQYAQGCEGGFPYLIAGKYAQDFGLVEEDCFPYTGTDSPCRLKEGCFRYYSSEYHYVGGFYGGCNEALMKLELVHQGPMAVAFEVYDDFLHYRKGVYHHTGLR
Sequence of dipeptidyl peptidase I (DPPI) (Q3ZCJ8 25-134 limits assumed): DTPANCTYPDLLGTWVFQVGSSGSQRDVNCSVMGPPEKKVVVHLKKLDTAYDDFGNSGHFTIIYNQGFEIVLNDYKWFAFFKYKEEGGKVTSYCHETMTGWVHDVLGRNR
Sequence of dipeptidyl peptidase I (DPPI) (Q3ZCJ8 395-463 limits assumed): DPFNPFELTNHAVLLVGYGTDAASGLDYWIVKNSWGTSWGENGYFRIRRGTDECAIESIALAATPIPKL
Description: When R1 and R2 are amino acids with nonpolar side groups, such products are very hydrophobic and water insoluble (J. Biol. Chem. 1952; 195:645-656). […] Of note, much lower extracellular concentrations of Leu-Leu-OMe are required for production of a similar product within NK and T8 cells.

[10] = Expt. 1, LLMe Resistant Lymphocytes
[11] = Expt. 1, Non-adherent Lymphocytes
[12] = second 37° C. incubation 15 minutes
[13] = second 37° C. incubation 30 minutes
[14] = second 37° C. incubation 60 minutes

COC(=O)[C@H](Cc1ccccc1)NC(=O)[C@@H](N)CC(C)C [Leu-Phe-OMe] (H-Leu-Phe-OMe)
inhibition at 250 µM [1]: 72% | activity and appearance post-injection [2]: exhibited decreased activity and an apparent increase in sleep | NK Toxicity (LD50) ([3]; concentration which results in 50% loss of human NK function, PBL 15 minutes at 22° C.): 29 micro-M | NK toxicity / effect on NK function, in words ([3]; lymphocytes exposed 15 minutes at room temperature (FIG. 4, FIG. 5)): produced concentration-dependent ablation of NK function at concentrations comparable to those at which Leu-Leu-OMe was active | Percent lysis of target cells ([4]; E:T 25:1, 2.5×10^-5 moles per mouse tail-vein, 2 hours post-injection, Control 8.29): 3.89% | Percent lysis of target cells ([4]; E:T 50:1, same dosing, Control 12.88): 4.68% | Percent lysis of target cells ([4]; E:T 100:1, same dosing, Control 20.60): 6.91% | Percent lysis of target cells ([4]; E:T 200:1, same dosing, Control 29.29): 11.91% | decrease in splenic lytic activity against YAC-1 tumor targets ([4]; about 1×10^-3 moles per kg tail-vein): greater than 75%

O=S(=O)(F)Cc1ccccc1 [PMSF, phenylmethylsulfonylfluoride]
[^3 H]Leu--Leu--OMe Incorporation, 10% TCA Precipitate [5]: 2,078 + 213 cpm

COC(=O)[C@@H](N)C(C)C [Val-OMe]
deletion of NK function from human PBM [6]: did not delete NK function from human PBM

COC(=O)[C@H](CC(C)C)NC(=O)[C@@H](N)CC(C)C [[^3 H]Leu--Leu--OMe]
Incorporation, Initial [7, 10]: 7,184 cpm | Incorporation, TCA Precipitate [7, 10]: 50 cpm | TCA Precipitate (% of initial) [7, 10]: 0.7% | Incorporation, Initial [7, 11]: 27,870 cpm | TCA Precipitate (% of initial) [7, 11]: 8.4% | Incorporation, TCA Precipitate ([7]; Expt. 1, Non-adherent Lymphocytes, 30 minutes 37° C.): 2,341 cpm | Incorporation, Initial ([7]; Expt. 2, Fibroblasts): 63,229 cpm | Incorporation, TCA Precipitate ([7]; Expt. 2, Fibroblasts): 293 cpm | TCA Precipitate (% of initial) ([7]; Expt. 2, Fibroblasts): 0.5% | Incorporation, Initial ([7]; Expt. 2, Renal Cell Carcinoma): 35,855 cpm | Incorporation, TCA Precipitate ([7]; Expt. 2, Renal Cell Carcinoma): 267 cpm | TCA Precipitate (% of initial) ([7]; Expt. 2, Renal Cell Carcinoma): 0.7% | Incorporation, Initial ([7]; Expt. 2, T4 Cells): 12,200 cpm | Incorporation, TCA Precipitate ([7]; Expt. 2, T4 Cells): 207 cpm | TCA Precipitate (% of initial) ([7]; Expt. 2, T4 Cells): 1.7% | Incorporation, Initial ([7]; Expt. 2, T8, NK Cells): 22,753 cpm | Incorporation, TCA Precipitate ([7]; Expt. 2, T8, NK Cells): 3,208 cpm | TCA Precipitate (% of initial) ([7]; Expt. 2, T8, NK Cells): 14.1% | initial uptake by T4 cells relative to equal number of T8 and NK cells ([7]; Expt. 2 of Table 8): approximately 53% | Fractional Conversion of [^3 H]Leu--Leu--OMe to a product which Precipitates in 10% TCA ([7]; 1 micro-M): < 0.1% | Fractional Conversion of [^3 H]Leu--Leu--OMe to a product which Precipitates in 10% TCA ([7]; 10 micro-M): < 0.2% | Fractional Conversion of [^3 H]Leu--Leu--OMe to a product which Precipitates in 10% TCA ([7]; 100 micro-M): 11.1% | Fractional Conversion of [^3 H]Leu--Leu--OMe to a product which Precipitates in 10% TCA ([7]; 250 micro-M): 23.2% | [^3 H]Leu--Leu--OMe Total ([7]; PBL, 15 minutes 22° C., second 37° C. incubation 0): 61.4 cpm × 10^-3 | label in TCA precipitate of T4 cell sonicate relative to T8 and NK cell sonicates ([7]; after 30 minute incubation): less than 7% | [^3 H]Leu--Leu--OMe TCA Prec. ([7]; second 37° C. incubation 0): 0.5 cpm × 10^-3 | [^3 H]Leu--Leu--OMe TCA Prec. [7, 12]: 6.8 cpm × 10^-3 | [^3 H]Leu--Leu--OMe Total [7, 12]: 24.9 cpm × 10^-3 | [^3 H]Leu--Leu--OMe TCA Prec. [7, 13]: 12.7 cpm × 10^-3 | [^3 H]Leu--Leu--OMe Total [7, 13]: 20.6 cpm × 10^-3 | [^3 H]Leu--Leu--OMe TCA Prec. [7, 14]: 10.7 cpm × 10^-3 | [^3 H]Leu--Leu--OMe Total [7, 14]: 12.7 cpm × 10^-3 | [^3 H]Leu--Leu--OMe Uptake/Binding ([8]; Expt. 1, 0° C.): 0.05 micro-moles/10^6 cells | [^3 H]Leu--Leu--OMe Uptake/Binding ([8]; Expt. 1, 22° C.): 0.77 micro-moles/10^6 cells | [^3 H]Leu--Leu--OMe Uptake/Binding ([8]; Expt. 2, 4° C.): 0.02 micro-moles/10^6 cells | [^3 H]Leu--Leu--OMe Uptake/Binding ([8]; Expt. 2, 22° C.): 0.31 micro-moles/10^6 cells | [^3 H]Leu--Leu--OMe Uptake/Binding ([8]; Expt. 2, 37° C.): 0.52 micro-moles/10^6 cells | Fractional Conversion of [^3 H]Leu--Leu--OMe to a product which Precipitates in 10% TCA ([9]; 1 micro-M): < 0.01% | Fractional Conversion of [^3 H]Leu--Leu--OMe to a product which Precipitates in 10% TCA ([9]; 10 micro-M): 0.03% | Fractional Conversion of [^3 H]Leu--Leu--OMe to a product which Precipitates in 10% TCA ([9]; 100 micro-M): 0.08% | Fractional Conversion of [^3 H]Leu--Leu--OMe to a product which Precipitates in 10% TCA ([9]; 1000 micro-M): 20.0%
